According to paper PMC2806516 (Biochemistry, 2010):

Tests used:
HpaC [1] = target: T1, HpaC (Pseudomonas aeruginosa, UniProt Q9HWT6); test: stopped-flow; assay type: binding
T1 sequence (Q9HWT6 1-170): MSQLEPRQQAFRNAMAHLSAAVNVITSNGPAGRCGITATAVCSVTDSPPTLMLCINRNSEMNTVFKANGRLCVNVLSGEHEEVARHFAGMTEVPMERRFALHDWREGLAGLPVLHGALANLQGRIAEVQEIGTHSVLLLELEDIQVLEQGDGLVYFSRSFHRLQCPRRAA

HpaA [2] = target: T2, HpaA (Pseudomonas aeruginosa, UniProt Q9HWT7); test: stopped-flow; assay type: binding
T2 sequence (Q9HWT7 1-520): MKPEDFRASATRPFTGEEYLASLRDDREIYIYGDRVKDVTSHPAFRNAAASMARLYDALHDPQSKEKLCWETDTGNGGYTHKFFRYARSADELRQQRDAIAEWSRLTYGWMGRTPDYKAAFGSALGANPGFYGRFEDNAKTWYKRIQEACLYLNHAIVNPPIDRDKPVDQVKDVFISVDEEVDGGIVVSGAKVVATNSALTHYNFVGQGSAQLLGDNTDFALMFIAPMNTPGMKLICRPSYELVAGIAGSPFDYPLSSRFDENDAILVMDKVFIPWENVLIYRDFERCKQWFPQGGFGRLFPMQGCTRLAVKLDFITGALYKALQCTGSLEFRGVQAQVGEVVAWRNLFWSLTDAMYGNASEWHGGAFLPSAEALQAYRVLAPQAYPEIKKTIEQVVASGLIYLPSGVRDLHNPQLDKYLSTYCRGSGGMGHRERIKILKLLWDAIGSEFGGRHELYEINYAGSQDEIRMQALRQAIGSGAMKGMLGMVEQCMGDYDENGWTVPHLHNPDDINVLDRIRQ

[3] = target: HpaA, oxygenase of p-hydroxyphenylacetate 3-hydroxylase (HPAH) from Pseudomonas aeruginosa, N-terminal His-tagged (P. aeruginosa); test: SEC
HpaA [4] = target: T2, HpaA; test: absorption spectral titration; assay type: binding
HpaC [5] = target: T1, HpaC; test: fluorimetric titration; assay type: binding

Question: `Cc1cc2c(cc1C)N(C[C@H](O)[C@H](O)[C@H](O)COP(=O)(O)OP(=O)(O)OC[C@H]1O[C@@H](n3cnc4c(N)ncnc43)[C@H](O)[C@@H]1O)c1[nH]c(=O)[nH]c(=O)c1N2` [FADH^−] was tested. Which Kd (HpaC [1]) did it give?
Answer: ~20 µM

Question: And the Kd (HpaA [2])?
Answer: ≤ 2 µM

Question: With “HpaA, oxygenase of p-hydroxyphenylacetate 3-hydroxylase (HPAH) from Pseudomonas aeruginosa, N-terminal His-tagged (enzyme)” as the compound, how does the stoichiometry N [3] read?
Answer: 2

Question: `Cc1cc2nc3c(=O)[nH]c(=O)nc-3n(C[C@H](O)[C@H](O)[C@H](O)COP(=O)(O)OP(=O)(O)OC[C@H]3O[C@@H](n4cnc5c(N)ncnc54)[C@H](O)[C@@H]3O)c2cc1C` [FAD] was tested. Which Kd (HpaA [4]) did it give?
Answer: ≥ 250 µM

Question: And the Kd (HpaC [5])?
Answer: 3 µM
